# Experimental data published in patent publication US20030017567A1, “Biological sample processing methods and compositions that include surfactants” (3M Innovative Properties Company, priority 2001, published 2003).
# Marks after values point to notes of the source that are not given here.
# Assays:
# [1] = Thermal degradation of dye: absorbance at beginning and end of thermal cycling; assay type: physicochemical
# Source text: The dyes SDA 8080 and 785 WS were mixed with a variety of surfactants such as PLURONIC F-127, TWEEN-20, TRITON X-100, NP-40, BRIJ-97 and cycled in a thermocycler (9700, Applied Biosystems). Absorbance readings were taken at the beginning and end of thermal cycling using HP Chem Station (HP 8453, Agilent Technologies, Palo Alto, Calif.) at 785 nm for the 785 WS dye and 1040 nm for the SDA 8080 dye. […] Thus, the surfactant helps to protect thermal degradation of the dye.
# [2] = Laser stability / photobleaching of dye solution on repeated laser exposure; assay type: physicochemical; details: for Laser Stability: 25 exposures
# Experimental: An 813-nm diode laser source at 1.2W (1.9A) (Opto Power Corp., Tucson, Ariz. ) was used to heat a 10μL volume of near-IR dye at a concentration (0.1 mg/mL for 785 WS, 0.2 mg/iL for SDA 8080) to yield a 35° C. rise in temperature. The laser was manually turned on long enough for the temperature in a 10-μL well to increase by 35° C. (1-3 seconds) and was manually turned off when that level was attained. The temperature data was obtained using a thermocouple in the well, and the transmittance data was obtained via a power meter whose signals were digitized and graphically interpreted.
# In another experiment, the 10 μL well was used to see if the dye/surfactant mixture could withstand laser cycling over a period of 30 cycles. The laser power was systematically varied from 60° C. to 94° C., 30 times.
# Unlike in Example 8, some dyes and dye/surfactant complexes undergo photodegradation when exposed to laser beam. […] Specifically, in the case of 785 WS/BRIJ-97, the addition of ascorbic acid (typically 5 mg/mL) helped reduce the amount of photobleaching from 100% to 20% after 30 cycles. In some circumstances, rapid/controlled photodegradation may be desired. […] This would allow DNA tags (fluorescent or vis/IR) to be monitored at the end of the PCR reaction.
# Vitamin E-TPGS has both surfactant as well as antioxidant properties.
# [3] = target: T1, AMPLITAQ DNA polymerase (Taq polymerase) (Thermus aquaticus, UniProt P19821); test: PCR amplification of PERV protease fragment (327 bp) in presence of dye/surfactant; product on agarose gel or quantitated with Agilent 2100 Bioanalyzer; assay type: biochemical; details: for effect of dye on PCR (Example 6): dye at typical concentrations of 0.1 or 0.2 mg/mL, without surfactant, agarose gel
# T1 construct: purchased Applied Biosystems, Foster City, Calif
# Experimental: Typically, a fresh stock solution of 5 milligrams (mg) of a water-insoluble near-infrared dye (NIR dye) was dissolved in 50 microliters (μL) of dimethylsulfoxide (DMSO) and brought up in water to a final volume of 1 milliliter (mL). This was then diluted out to various concentrations of dye. The diluted dye (typically 0.2 mg/mL) was then added to a surfactant solution (typically 4 wt-%) to form a complex. The complex was added to a PCR reaction.
# PCR reactions were set up for a conserved sequence (327 bp) in the protease region of the genome of porcine endogenous retrovirus using a plasmid containing the PERV protease fragment, a forward primer and a reverse primer designed using a primer express program from Applied Biosystems, and AMPLITAQ DNA polymerase cocktail (commercially available from Applied Biosystems, Foster City, Calif.) and cycled in a thermocycler (9700, Applied Biosystems). The PCR reactions were typically carried out in 25-μL volumes. The NIR dye/surfactant mixture was added to the PCR cocktail to give the desired concentration of dye and surfactant in a total volume of 25 μL. A typical PCR cocktail contains 10x buffer, 2.5 μL; dNTPs, 2.0 μL (200 μM of each); forward primer, 0.5 μL (200 nM); reverse primer, 0.5 μL (200 nM); template DNA, 1.0 (1 ng/μL); Amplitaq, 0.25 μL (1.25 units); sterile water, 18.25 μL.
# The products of PCR reactions were run on 1% agarose gel containing ethidium bromide and visualized using an ALPHA IMAGER (Alpha Innotech Corp., San Leandro, Calif.). […] However, a higher concentration of dye (0.1 mg/mL) for effective heating was needed. Thus, for all further PCR experiments, a dye concentration of 0.1 mg/mL or higher was used. […] Taq polymerase was tested from different manufacturers (Promega Corp., Madison, Wis.; Roche Biochemicals, Indianapolis, Ind.; Eppendorf, Scientific Inc., Westbury, N.Y.; Sigma, St. Louis, Mo.) and all the Taq polymerases were inhibited by 785 WS and SDA 8080.
# In order to find out the optimum concentration of surfactant for PCR with NIR dye (785 WS and SDA 8080), the surfactant concentration in PCR reaction was varied from 0.1 wt-% to 4 wt-%. The PCR product formed was quantitated using DNA 7500 Labchip kit in Agilent 2100 Bioanalyzer (Agilent Inc, Paloalto, Calif.). The results shown in Table 3 indicate that increasing the concentration of surfactant relative to dye assists in the formation of PCR product.
# A variety of dyes (NIR dyes such as IR782, IR768, SDA 2141, SDA8327, IR 830 WS, fluorescent dyes like oligreen and visible dyes like dichlorophenol, indophenol, saffranin, crystal violet, and commercially available food coloring) at typical concentrations of 0.1 or 0.2 mg/mL were allowed to interact with 4 wt-% PLURONIC F127 and each mixture was added to the PCR cocktail. The reaction was set up to amplify PERV protease fragment as described in Example 2 and the products of the reaction were analyzed by agarose gel electrophoresis.
# [4] = 785 WS (0.1 mg/mL), surfactant 0.5 wt %, absorbance at 785 nm
# [5] = 785 WS (0.1 mg/mL), surfactant 2 wt %, absorbance at 785 nm
# [6] = 785 WS (0.1 mg/mL), surfactant 4 wt %, absorbance at 785 nm
# [7] = SDA 8080 (0.2 mg/mL), surfactant 0.5 wt %, absorbance at 1040 nm
# [8] = SDA 8080 (0.2 mg/mL), surfactant 2 wt %, absorbance at 1040 nm
# [9] = SDA 8080 (0.2 mg/mL), surfactant 4 wt %, absorbance at 1040 nm
# [10] = 785 WS 0.1 mg/mL, surfactant 0.1 wt %
# [11] = 785 WS 0.1 mg/mL, surfactant 0.5 wt %
# [12] = 785 WS 0.1 mg/mL, surfactant 1 wt %
# [13] = 785 WS 0.1 mg/mL, surfactant 2 wt %
# [14] = 785 WS 0.1 mg/mL, surfactant 4 wt %
# [15] = SDA 8080 0.2 mg/mL, surfactant 0.5 wt %
# [16] = SDA 8080 0.2 mg/mL, surfactant 1 wt %
# [17] = SDA 8080 0.2 mg/mL, surfactant 2 wt %
# [18] = SDA 8080 0.2 mg/mL, surfactant 4 wt %
# [19] = surfactant 4 wt %, 785 WS 0 mg/mL (no dye), data from a different experiment under identical PCR conditions
# [20] = surfactant 4 wt %, SDA 8080 0 mg/mL (no dye), data from a different experiment under identical PCR conditions
# [21] = 785 WS (0.1 mg/mL), surfactant 0.1 wt %, absorbance at 785 nm
# [22] = SDA 8080 (0.2 mg/mL), surfactant 0.1 wt %, absorbance at 1040 nm
# [23] = SDA 8080 0.2 mg/mL, surfactant 0.1 wt %
# [24] = 785 WS (0.1 mg/mL), surfactant 20 wt %, * can be made laser stable after addition of antioxidant
# [25] = SDA 8080 (0.2 mg/mL), surfactant 20 wt %
# T1 sequence (P19821 whole entry, the tested form may be a part): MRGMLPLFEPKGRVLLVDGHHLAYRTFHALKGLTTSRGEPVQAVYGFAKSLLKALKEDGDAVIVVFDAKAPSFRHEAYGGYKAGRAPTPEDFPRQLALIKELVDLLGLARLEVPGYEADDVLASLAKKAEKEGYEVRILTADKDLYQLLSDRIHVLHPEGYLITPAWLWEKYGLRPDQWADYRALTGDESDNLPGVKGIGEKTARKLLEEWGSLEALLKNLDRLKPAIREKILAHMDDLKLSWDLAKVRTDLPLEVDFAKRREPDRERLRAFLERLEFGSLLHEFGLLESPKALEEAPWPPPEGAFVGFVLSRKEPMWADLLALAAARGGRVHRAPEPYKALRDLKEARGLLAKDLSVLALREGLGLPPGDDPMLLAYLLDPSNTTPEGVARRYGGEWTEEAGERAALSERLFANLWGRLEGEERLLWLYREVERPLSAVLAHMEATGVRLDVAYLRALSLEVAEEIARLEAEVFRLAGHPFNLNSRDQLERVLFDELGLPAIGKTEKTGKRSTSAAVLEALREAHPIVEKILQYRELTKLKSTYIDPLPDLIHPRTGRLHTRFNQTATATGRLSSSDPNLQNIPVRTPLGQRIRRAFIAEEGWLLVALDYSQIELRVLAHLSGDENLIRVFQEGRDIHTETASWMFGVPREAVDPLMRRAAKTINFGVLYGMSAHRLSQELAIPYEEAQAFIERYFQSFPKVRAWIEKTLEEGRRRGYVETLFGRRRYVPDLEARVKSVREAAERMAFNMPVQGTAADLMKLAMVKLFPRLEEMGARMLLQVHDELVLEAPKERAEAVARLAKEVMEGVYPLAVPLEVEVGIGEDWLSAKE
compound,measurement,setting,value
d-Alpha tocopheryl polyethylene glycol 1000 [Vitamin E TPGS],Thermal Degradation,[1]; [4],6.5%
same,Thermal Degradation,[1]; [5],4.0%
same,Thermal Degradation,[1]; [6],5.3%
same,Thermal Degradation,[1]; [7],89.5%
same,Thermal Degradation,[1]; [8],88.9%
same,Thermal Degradation,[1]; [9],92.3%
same,Laser Stability,"[2]; 785 WS (0.1 mg/mL), surfactant 4 wt %, * can be made laser stable after addition of antioxidant",+ (less than a 20% degradation in dye absorbance over a period of 25 exposures)
same,light stability,"[2]; Vitamin E-TPGS 4 wt-% added to 785 WS 0.1 mg/mL, after 30 cycles of laser exposure",significantly increased
Nonyl phenoxy poly (ethyleneoxy) ethanol [NP-40],PCR Product,[3]; [10],0 ng/µL
same,PCR Product,[3]; [11],0 ng/µL
same,PCR Product,[3]; [12],0 ng/µL
same,PCR Product,[3]; [13],0.3 ng/µL
same,PCR Product,[3]; [14],3.8 ng/µL
same,PCR Product,"[3]; SDA 8080 0.1 mg/mL, surfactant 0.1 wt %",0 ng/µL
same,PCR Product,[3]; [15],23.3 ng/µL
same,PCR Product,[3]; [16],23.7 ng/µL
same,PCR Product,[3]; [17],17.2 ng/µL
same,PCR Product,[3]; [18],18 ng/µL
same,PCR Product,[3]; [19],24.2* ng/μL
same,PCR Product,[3]; [20],24.2* ng/μL
same,Thermal Degradation,[1]; [21],20.2%
same,Thermal Degradation,[1]; [6],27.4%
same,Thermal Degradation,[1]; [22],82.1%
same,Thermal Degradation,[1]; [9],48.8%
Octyl phenoxy polyethoxyethanol [TRITON X-100],PCR Product,[3]; [10],0 ng/µL
same,PCR Product,[3]; [11],0.1 ng/µL
same,PCR Product,[3]; [12],0.4 ng/µL
same,PCR Product,[3]; [13],2.2 ng/µL
same,PCR Product,[3]; [14],1.3 ng/µL
same,PCR Product,[3]; [23],0 ng/µL
same,PCR Product,[3]; [15],2.3 ng/µL
same,PCR Product,[3]; [16],1.4 ng/µL
same,PCR Product,[3]; [17],1.9 ng/µL
same,PCR Product,[3]; [18],1.1 ng/µL
same,PCR Product,[3]; [19],23.8* ng/μL
same,PCR Product,[3]; [20],23.8* ng/μL
same,Thermal Degradation,[1]; [21],24.8%
same,Thermal Degradation,[1]; [6],4.6%
same,Thermal Degradation,[1]; [22],76.0%
same,Thermal Degradation,[1]; [9],0.0%
same,Thermal Degradation,"[1]; SDA 8080 (0.2 mg/mL), surfactant 20 wt %, absorbance at 1040 nm",7.1%
same,Laser Stability,[2]; [24],−* (greater than 20% degradation in dye absorbance over a period of 25 exposures)
same,Laser Stability,[2]; [25],+ (less than a 20% degradation in dye absorbance over a period of 25 exposures)
CN(C)c1ccc(C(=C2C=CC(=[N+](C)C)C=C2)c2ccc(N(C)C)cc2)cc1 [crystal violet],effect of dye on PCR (Example 6),[3],inhibited PCR
O=C1O[C@H]([C@@H](O)CO)C(O)=C1O [ascorbic acid],effect of antioxidant on photobleaching of 785 WS,[2]; added to virtually any of the surfactants tested with 785 WS,reduced photobleaching significantly
Cc1cc2nc3cc(C)c(N)cc3[n+](-c3ccccc3)c2cc1N.[Cl-] [saffranin],effect of dye on PCR (Example 6),[3],inhibited PCR
Polyoxyethylene (10) oleyl ether [BRIJ 97],PCR Product,[3]; [10],0 ng/µL
same,PCR Product,[3]; [11],0 ng/µL
same,PCR Product,[3]; [12],0 ng/µL
same,PCR Product,[3]; [13],13.8 ng/µL
same,PCR Product,[3]; [14],21.9 ng/µL
same,PCR Product,[3]; [23],18.7 ng/µL
same,PCR Product,[3]; [15],19.3 ng/µL
same,PCR Product,[3]; [16],23.5 ng/µL
same,PCR Product,[3]; [17],25.5 ng/µL
same,PCR Product,[3]; [18],22.6 ng/µL
same,Thermal Degradation,"[1]; 785 WS (0.1 mg/mL), surfactant 0.01 wt %, absorbance at 785 nm",79.0%
same,Thermal Degradation,[1]; [4],95.0%
same,Thermal Degradation,"[1]; 785 WS (0.1 mg/mL), surfactant 1 wt %, absorbance at 785 nm",94.5%
same,Thermal Degradation,[1]; [5],94.5%
same,Thermal Degradation,[1]; [6],96.0%
same,Thermal Degradation,"[1]; SDA 8080 (0.2 mg/mL), surfactant 0.01 wt %, absorbance at 1040 nm",86.2%
same,Thermal Degradation,[1]; [7],67.7%
same,Thermal Degradation,"[1]; SDA 8080 (0.2 mg/mL), surfactant 1 wt %, absorbance at 1040 nm",50.0%
same,Thermal Degradation,[1]; [8],29.4%
same,Thermal Degradation,[1]; [9],6.0%
same,Laser Stability,[2]; [24],−* (greater than 20% degradation in dye absorbance over a period of 25 exposures)
same,Laser Stability,[2]; [25],+ (less than a 20% degradation in dye absorbance over a period of 25 exposures)
dichlorophenol,effect of dye on PCR (Example 6),[3],inhibited PCR
